{"source": "patent US10980812B2", "about": "“3-(4-((4-(morpholinomethyl-benzyl)oxy)-1 -oxoisoindolin-2-yl)piperidine-2,6-dione for the treatment of systemic lupus erythematosus” (Celgene Corporation, priority 2014, dated 2021)", "key": {"Aiolos [1]": {"test_system": "Aiolos", "assay": "Aiolos protein level in whole blood leukocyte subsets, flow cytometry", "type": "cell-based, human", "conditions": "1, 10, 100 nM, 18 hrs; CD19+ B cells, CD3+ T cells, CD14+ monocytes, granulocytes", "procedure": "(§1) Human heparinized whole blood from normal healthy volunteers (Bioreclamation, Westbury, N.Y.) was treated with 0.1% DMSO and Compound 1A (1, 10, 100 nM) for 18 hrs at 37° C., 5% CO2. After 18 hrs, the blood was lysed and fixed with 1× Lyse/Fix Buffer (BD Biosciences) for 10 minutes at 37° C. Washed cells with cold PBS and cells were first multicolor stained with mouse anti-human CD3-PE mAb, mouse anti-human CD19-APC mAb and mouse anti-human-CD14-PerCP mAb (all from BD Biosciences) to identify CD3+ T cells, CD19+ B cells and CD14+ monocytes, respectively. The cells were then permeabilized by adding BD Perm/Wash Buffer I. Blocked non-specific binding by added FcR Blocking Reagent (Miltenyi Biotech) for 10 minutes prior to staining for intracellular Aiolos or Ikaros content. The cells were then stained with rabbit anti-human Aiolos polyclonal Ab (Santa Cruz, 1:200 dilution in Perm/Wash Buffer) or anti-human Ikaros polyclonal Ab (Santa Cruz, 1:50 dilution in Perm/Wash Buffer), followed by a goat-anti-rabbit mAb-AF488 Ab (Invitrogen, at 1:400 dilution in Perm/Wash Buffer) to test the intracellular Aiolos or Ikaros levels. […] Aiolos and Ikaros protein levels in B cells, T cells, monocytes and granulocytes were analyzed by FACSCanto with FACSDiva 6 (BD Biosciences) based on the gating of CD3+ cells, CD19+ cells, CD14+ cells and granulocytes (FSC/SSC). […]"}, "Ikaros": {"test_system": "Ikaros", "assay": "Ikaros protein level in whole blood leukocyte subsets, flow cytometry", "type": "cell-based, human", "conditions": "1, 10, 100 nM, 18 hrs; CD19+ B cells, CD3+ T cells, CD14+ monocytes, granulocytes", "procedure": "as §1"}, "[2]": {"test_system": "anti-dsDNA autoantibodies, SLE PBMC", "assay": "Anti-dsDNA autoantibody production in cultures of SLE PBMC (ELISA)", "type": "cell-based", "conditions": "Homo sapiens, N=9", "procedure": "(§2) PBMCs were purified from human buffy coats using Ficoll-Paque method. CD19+ B cells were isolated from PBMC by following EasySep Human B cell enrichment cocktail protocol (StemCell Technologies Catalog #19054). Fresh B cell cocktail was prepared by adding 50 μg/mL of human transferrin to B cell medium (Iscove's medium with 10% PFBS, 1% P/S, and 5 μg/mL human insulin). The required volume of medium needed for the experiment was filtered through a 0.22 micron filter. B cell differentiation cocktail (final concentration): recombinant human Interleukin (IL)-2 (20 U/mL), IL-10 (50 ng/mL), IL-15 (10 ng/mL), CD40 Ligand/TNFSF5/histidine-tagged (50 ng/mL), polyHistidine mouse IgG1 antibody (5 μg/mL), and ODN 2006-Human TLR9 ligand (10 μg/mL). CD19+ cells were pretreated with Compound 1A or a Syk inhibitor or 0.1% DMSO for 1 hr, then incubated with B-cell differentiation medium for indicated times.\n(§3) Whole blood samples from patients identified with SLE were obtained from Sanguine Biosciences; Inc. the blood was diluted with sterile Dulbecco's phosphate buffered saline solution (DPBS) and placed into three 50-mL conical tubes. […] Cell culture supernatants were harvested and analyzed for autoantibodies using an Anti-double stranded DNA antibody ELISA kit (Orgentec ORG 604S) and an Anti-Cardiolipin/Phospholipid ELISA kit (Orgentec ORG-529)."}, "[3]": {"test_system": "anti-phospholipid autoantibodies, SLE PBMC", "assay": "Anti-phospholipid autoantibody production in cultures of SLE PBMC (ELISA)", "type": "cell-based", "conditions": "Homo sapiens, N=8", "procedure": "as §2, §3"}, "Aiolos [4]": {"test_system": "Aiolos", "assay": "B cell intracellular Aiolos after single doses in healthy volunteers", "type": "in vivo, human", "procedure": "(§4) Healthy volunteers were administered placebo (n=10) or Compound 1A at doses of 0.03 mg, 0.1 mg, 0.3 mg, 1 mg, or 2 mg (N=6 each). Blood samples were drawn prior to dosing, or 3 hr, 12 hr, and 24 hr after dosing. Blood samples were lysed and fixed immediately by mixing 1 volume of blood with 20 volumes of 1× Lyse/Fix buffer (BD Biosciences, cat#558049) and mixing thoroughly by inverting the tube several times. This sample mix was incubated in a 37° C. water bath for 10 minutes, and the cells were pelleted by centrifugation at 800×g for 5 minutes to remove the supernatant by aspiration. The cells were washed twice with 2 mL of cold phosphate buffer saline (PBs), then permeabilized by adding 2 mL of cold BD Cytofix/cytoperm buffer and incubated on ice for 15 minutes. The cells were centrifuged than washed twice with BD perm/wash buffer, then resuspended in 40 ul of BD perm/wash buffer. Cells were stained with anti-CD3 or anti-CD19 antibody, and 20 ul of anti-Aiolos Ab (Santa Cruz Santa Cruz, rabbit polyclonal IgG, cat #sc-101982 at 1:200 dilution with staining buffer), or 20 uL of appropriate isotype controls to cells. Cells were mixed thoroughly and incubated at room temperature for 30 minutes in the dark, washed once with BD perm/wash buffer, then resuspended in 80 ul of BD perm/wash buffer, and 20 uL of secondary antibody was added before analysis on a flow cytometer."}, "Aiolos [5]": {"test_system": "Aiolos", "assay": "T cell intracellular Aiolos after single doses in healthy volunteers", "type": "in vivo, human", "conditions": "12 hours postdose", "procedure": "as §4"}, "CD19+ B cells": {"test_system": "CD19+ B cells", "assay": "Peripheral blood B cell counts in healthy volunteers", "type": "in vivo", "conditions": "Homo sapiens", "procedure": "as §4, with “Blood samples were drawn prior to dosing, or 3 hr, 12 hr, and 24 hr after dosing.” left out\nAbsolute B cell counts in the peripheral blood were measured by flow cytometry with anti-CD19 antibody as described above."}, "CD3+ T cells": {"test_system": "CD3+ T cells", "assay": "Peripheral blood T cell counts in healthy volunteers", "type": "in vivo, human", "procedure": "as §4\nAbsolute T cell counts in the peripheral blood were measured by flow cytometry with anti-CD3 antibody as described above."}, "IL-2": {"test_system": "IL-2", "assay": "Ex vivo IL-2 production in anti-CD3-stimulated whole blood of dosed healthy volunteers", "design": "species or system human", "conditions": "12 hours postdose on Day 1", "excerpt": "Whole blood was stimulated with anti-CD3 antibody and analyzed for IL-2 using the CD3 TruCulture system (Part number 782-001202) by Myriad Rules Based Medicine (Austin, Tex.)."}, "IL-1β": {"test_system": "IL-1β", "assay": "Ex vivo IL-1β production in lipopolysaccharide-stimulated whole blood of dosed healthy volunteers", "design": "species or system human", "conditions": "12 hours postdose", "excerpt": "Whole blood was stimulated with lipopolysachharide and analyzed for IL-1β using the LPS TruCulture system (Part number 782-001087) by Myriad Rules Based Medicine (Austin, Tex.)."}}, "note": "Read-outs that look alike come from different tables or passages of the source.", "data": [{"smiles": "O=C1CC[C@H](N2Cc3c(OCc4ccc(CN5CCOCC5)cc4)cccc3C2=O)C(=O)N1", "note": "[Compound 1A, (S)-3-[4-(4-morphlin-4-ylmethylbenzyloxy)-1-oxo-1,3-dihydro-isoindo-2-yl]piperidine-2,6-dione]", "values": [{"measurement": "Aiolos protein levels in whole blood leukocyte subsets", "setting": "Aiolos [1]", "value": "reduced"}, {"measurement": "Ikaros protein levels in whole blood leukocyte subsets", "setting": "Ikaros", "value": "reduced"}, {"measurement": "IC50", "setting": "[2]", "value": "~10", "unit": "nM"}, {"measurement": "IC50", "setting": "[3]", "value": "~10", "unit": "nM"}, {"measurement": "B cell intracellular Aiolos, percent of baseline", "setting": "Aiolos [4]; 0.3 mg single dose, 24 hours postdose", "value": 24.8, "unit": "%"}, {"measurement": "B cell intracellular Aiolos, percent of baseline", "setting": "Aiolos [4]; 1 mg single dose, 12 hours postdose", "value": 28.2, "unit": "%"}, {"measurement": "B cell intracellular Aiolos, percent of baseline", "setting": "Aiolos [4]; 2 mg single dose, 12 hours postdose", "value": 25.0, "unit": "%"}, {"measurement": "T cell intracellular Aiolos, percent of baseline", "setting": "Aiolos [5]; 1 mg single dose", "value": 22.3, "unit": "%"}, {"measurement": "T cell intracellular Aiolos, percent of baseline", "setting": "Aiolos [5]; 2 mg single dose", "value": 26.1, "unit": "%"}, {"measurement": "Emax", "setting": "CD19+ B cells; 48 h, 1 mg, Day 2, read-out: absolute CD19+ cells, mean percent of baseline (maximum response)", "value": 67.3, "unit": "%"}, {"measurement": "Emax", "setting": "CD19+ B cells; 72 h, 0.3 mg, Day 3, read-out: absolute CD19+ cells, mean percent of baseline (maximum response)", "value": 73.5, "unit": "%"}, {"measurement": "Emax", "setting": "CD19+ B cells; 72 h, 2 mg, Day 3, read-out: absolute CD19+ cells, mean percent of baseline (maximum response)", "value": 51.3, "unit": "%"}, {"measurement": "peripheral blood T cell counts, percent of baseline", "setting": "CD3+ T cells; 0.3 mg, Day 2", "value": 84.1, "unit": "%"}, {"measurement": "peripheral blood T cell counts, percent of baseline", "setting": "CD3+ T cells; 1 mg, Day 2", "value": 79.4, "unit": "%"}, {"measurement": "peripheral blood T cell counts, percent of baseline", "setting": "CD3+ T cells; 2 mg, Day 5", "value": 73.8, "unit": "%"}, {"measurement": "maximum IL-2, mean percent of baseline", "setting": "IL-2; 0.3 mg", "value": 315, "unit": "%"}, {"measurement": "maximum IL-2, mean percent of baseline", "setting": "IL-2; 1 mg", "value": 973, "unit": "%"}, {"measurement": "maximum IL-2, mean percent of baseline", "setting": "IL-2; 2 mg", "value": 915, "unit": "%"}, {"measurement": "maximum IL-1β response, mean percent of baseline", "setting": "IL-1β; 0.3 mg", "value": 42.2, "unit": "%"}, {"measurement": "maximum IL-1β response, mean percent of baseline", "setting": "IL-1β; 1 mg", "value": 21.8, "unit": "%"}, {"measurement": "maximum IL-1β response, mean percent of baseline", "setting": "IL-1β; 2 mg", "value": 16.3, "unit": "%"}]}]}
